In the supplement of paper PMC11451515:

Assays:
SEM cells [1] = experiment: cell viability relative to DMSO control; higher = less cytotoxic; settings: 48 h
Procedure, shortened: (§1)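 Before seeding, each leukemia line was adapted for at least four passages in each medium. NOMO1 or SEM cells (500 cells/well) and P12-Ichikawa cells (1000 cells/well) went into 1536-well plates at 5 μl, then received library compounds in DMSO by pin dosing across 11 threefold concentrations, 47 μM to 0.79 nM. Readout was CellTiter-Glo One luminescence after 48 h at 37°C, and viability is given as a per-plate percentage of DMSO wells, with cell-free wells as background.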

NOMO1 [2] = experiment: AUC of viability dose-response curve (% viability x log10 dose units); higher = less sensitive; settings: 48 h
Procedure, shortened: (§2)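 Leukemia cells adapted to each medium were seeded at 500 or 1000 cells/well in 1536-well plates and dosed with library compounds in DMSO at 11 threefold doses from 47 μM to 0.79 nM for 48 h at 37°C. CellTiter-Glo One luminescence was normalised per plate to DMSO and cell-free wells, then fitted with a four-parameter log-logistic model over log10 doses. Area under the curve was taken from this fit by the trapezoidal rule, with curves above full viability scaled and curves failing quality control removed.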

P12-Ichikawa [3] = experiment: as above; settings: 48 h
Procedure, shortened: as §2

SEM cells [4] = experiment: as above; settings: 48 h
Procedure, shortened: as §2

NOMO1 [5] = experiment: cell viability relative to DMSO control; higher = less cytotoxic; settings: HPLM + 10% dialyzed FBS, 48 h
Procedure, shortened: as §1

P12-Ichikawa [6] = experiment: as above; settings: 48 h
Procedure, shortened: as §1

COC(=O)N[C@H](C(=O)N1CCC[C@H]1c1ncc(-c2ccc(-c3ccc(-c4cnc([C@@H]5CCCN5C(=O)[C@@H](NC(=O)OC)C(C)C)[nH]4)cc3)cc2)[nH]1)C(C)C
SEM cells [1], HPLM + 10% dialyzed FBS
Settings | cell viability [%]
0.000781 µM | 90.4
0.00234 µM | 116
0.00702 µM | 132
0.0211 µM | 125
0.0632 µM | 129
0.19 µM | 126
0.569 µM | 117
1.71 µM | 131
5.12 µM | 133
15.4 µM | 126
46.1 µM | 98.3

AUC of viability dose-response curve
Settings | NOMO1 [2] | P12-Ichikawa [3] | SEM cells [4]
HPLM + 10% dialyzed FBS | 437 | 473 | 468
RPMI 5 mM glucose + 10% FBS | 458 | 474 | 468
RPMI 5 mM glucose + 10% dialyzed FBS | 470 | 473 | 460

C[C@@H]1C(=O)OC2[C@H](O)[C@]34[C@H]5C[C@@H](C(C)(C)C)[C@]36[C@@H](OC(=O)[C@@H]6O)O[C@@]4(C(=O)O5)[C@]21O (some centres not stated)
SEM cells [1], HPLM + 10% dialyzed FBS
Settings | cell viability [%]
0.000781 µM | 116
0.00234 µM | 102
0.00702 µM | 129
0.0211 µM | 119
0.0632 µM | 127
0.19 µM | 116
0.569 µM | 117
1.71 µM | 119
5.12 µM | 91.8
15.4 µM | 107
46.1 µM | 65.8

AUC of viability dose-response curve
Settings | NOMO1 [2] | P12-Ichikawa [3] | SEM cells [4]
HPLM + 10% dialyzed FBS | 450 | 452 | 451
RPMI 5 mM glucose + 10% FBS | 457 | 445 | 437
RPMI 5 mM glucose + 10% dialyzed FBS | 457 | 450 | 424

Cc1ncc(-c2ccnc(Nc3ccc([S+](C)(=O)[O-])cc3)n2)n1C(C)C
AUC of viability dose-response curve
Settings | NOMO1 [2] | P12-Ichikawa [3] | SEM cells [4]
HPLM + 10% dialyzed FBS | 400 | 437 | 367
RPMI 5 mM glucose + 10% FBS | 396 | 412 | 357
RPMI 5 mM glucose + 10% dialyzed FBS | 389 | 416 | 380

COC1=CC=C2[N](CCCN(C)C)C=C(C2=C1)C/3=C(/C(=O)NC3=O)C4=C[NH]C5=C4C=CC=C5
SEM cells [1], HPLM + 10% dialyzed FBS
Settings | cell viability [%]
0.000781 µM | 107
0.00234 µM | 123
0.00702 µM | 123
0.0211 µM | 123
0.0632 µM | 122
0.19 µM | 57.2
0.569 µM | 132
1.71 µM | 111
5.12 µM | 88.4
15.4 µM | 67.4
46.1 µM | 8.06

AUC of viability dose-response curve
Settings | NOMO1 [2] | P12-Ichikawa [3] | SEM cells [4]
HPLM + 10% dialyzed FBS | 471 | 456 | 425
RPMI 5 mM glucose + 10% FBS | 471 | 453 | 365
RPMI 5 mM glucose + 10% dialyzed FBS | 472 | 452 | 387

CC[C@H]1OC(=O)[C@H](C)[C@@H](O[C@H]2C[C@@](C)(OC)[C@@H](O)[C@H](C)O2)[C@H](C)[C@@H](O[C@@H]2O[C@H](C)C[C@H](N(C)C)[C@H]2O)[C@](C)(O)C[C@@H](C)CN(C)[C@H](C)[C@@H](O)[C@]1(C)O
SEM cells [1], HPLM + 10% dialyzed FBS
Settings | cell viability [%]
0.000781 µM | 85.1
0.00234 µM | 122
0.00702 µM | 124
0.0211 µM | 129
0.0632 µM | 133
0.19 µM | 127
0.569 µM | 149
1.71 µM | 119
5.12 µM | 129
15.4 µM | 133
46.1 µM | 96.6

AUC of viability dose-response curve
Settings | NOMO1 [2] | P12-Ichikawa [3] | SEM cells [4]
HPLM + 10% dialyzed FBS | 458 | 458 | 458
RPMI 5 mM glucose + 10% FBS | 419 | 452 | 458
RPMI 5 mM glucose + 10% dialyzed FBS | 446 | 459 | 467

N[C@@H](Cc1ccc(O)c(O)c1)C(=O)O
Settings | AUC of viability dose-response curve | cell viability [%]
NOMO1 [2], HPLM + 10% dialyzed FBS | 459 | –
NOMO1 [2], RPMI 5 mM glucose + 10% FBS | 475 | –
NOMO1 [2], RPMI 5 mM glucose + 10% dialyzed FBS | 456 | –
NOMO1 [5], 0.000781 µM | – | 121
NOMO1 [5], 0.00234 µM | – | 133
NOMO1 [5], 0.00702 µM | – | 117
NOMO1 [5], 0.0211 µM | – | 118
NOMO1 [5], 0.0632 µM | – | 144
NOMO1 [5], 0.19 µM | – | 131
NOMO1 [5], 0.569 µM | – | 122
NOMO1 [5], 1.71 µM | – | 136
NOMO1 [5], 5.12 µM | – | 131
NOMO1 [5], 15.4 µM | – | 116
NOMO1 [5], 46.1 µM | – | 55.3
P12-Ichikawa [3], HPLM + 10% dialyzed FBS | 471 | –
P12-Ichikawa [3], RPMI 5 mM glucose + 10% FBS | 454 | –
P12-Ichikawa [3], RPMI 5 mM glucose + 10% dialyzed FBS | 466 | –
SEM cells [4], HPLM + 10% dialyzed FBS | 456 | –
SEM cells [4], RPMI 5 mM glucose + 10% FBS | 433 | –
SEM cells [4], RPMI 5 mM glucose + 10% dialyzed FBS | 458 | –

cell viability [%]
Settings | HPLM + 10% dialyzed FBS | RPMI 5 mM glucose + 10% FBS | RPMI 5 mM glucose + 10% dialyzed FBS
P12-Ichikawa [6], 0.000781 µM | 122 | – | –
P12-Ichikawa [6], 0.00234 µM | 124 | – | –
P12-Ichikawa [6], 0.00702 µM | 118 | – | –
P12-Ichikawa [6], 0.0211 µM | 119 | – | –
P12-Ichikawa [6], 0.0632 µM | 130 | – | –
P12-Ichikawa [6], 0.19 µM | 123 | – | –
P12-Ichikawa [6], 0.569 µM | 127 | – | –
P12-Ichikawa [6], 1.71 µM | 122 | – | –
P12-Ichikawa [6], 5.12 µM | 125 | – | –
P12-Ichikawa [6], 15.4 µM | 131 | – | –
P12-Ichikawa [6], 46.1 µM | 121 | – | –
SEM cells [1], 0.000781 µM | 86.4 | 108 | 92.1
SEM cells [1], 0.00234 µM | 101 | 100 | 97.6
SEM cells [1], 0.00702 µM | 102 | 107 | 108
SEM cells [1], 0.0211 µM | 100 | 108 | 116
SEM cells [1], 0.0632 µM | 107 | 116 | 117
SEM cells [1], 0.19 µM | 108 | 115 | 116
SEM cells [1], 0.569 µM | 108 | 106 | 117
SEM cells [1], 1.71 µM | 111 | 116 | 123
SEM cells [1], 5.12 µM | 122 | 126 | 122
SEM cells [1], 15.4 µM | 107 | 121 | 128
SEM cells [1], 46.1 µM | 109 | 127 | 105

CSCC[C@H](NC(=O)[C@H](Cc1c[nH]c2ccccc12)NC(=O)CCNC(=O)OC(C)(C)C)C(=O)N[C@@H](CC(=O)O)C(=O)N[C@@H](Cc1ccccc1)C(N)=O
AUC of viability dose-response curve
Settings | NOMO1 [2] | P12-Ichikawa [3] | SEM cells [4]
HPLM + 10% dialyzed FBS | 440 | 470 | 460
RPMI 5 mM glucose + 10% FBS | 453 | 464 | 461
RPMI 5 mM glucose + 10% dialyzed FBS | 456 | 470 | 459

CCCCCCCCCCCCc1ccc([S+](=O)([O-])Nc2nncs2)cc1
AUC of viability dose-response curve
Settings | NOMO1 [2] | P12-Ichikawa [3] | SEM cells [4]
HPLM + 10% dialyzed FBS | 390 | 411 | 447
RPMI 5 mM glucose + 10% FBS | 443 | 460 | 360
RPMI 5 mM glucose + 10% dialyzed FBS | 452 | 451 | 415

Cc1ccc([S+](=O)([O-])Nc2cc(Cl)ccc2C(=O)Nc2nc(-c3ccccc3)cs2)cc1
Settings | AUC of viability dose-response curve | cell viability [%]
NOMO1 [2], HPLM + 10% dialyzed FBS | 455 | –
NOMO1 [2], RPMI 5 mM glucose + 10% FBS | 409 | –
NOMO1 [2], RPMI 5 mM glucose + 10% dialyzed FBS | 447 | –
NOMO1 [5], 0.000781 µM | – | 122
NOMO1 [5], 0.00234 µM | – | 117
NOMO1 [5], 0.00702 µM | – | 129
NOMO1 [5], 0.0211 µM | – | 118
NOMO1 [5], 0.0632 µM | – | 121
NOMO1 [5], 0.19 µM | – | 124
NOMO1 [5], 0.569 µM | – | 128
NOMO1 [5], 1.71 µM | – | 119
NOMO1 [5], 5.12 µM | – | 103
NOMO1 [5], 15.4 µM | – | 119
NOMO1 [5], 46.1 µM | – | 9.35
P12-Ichikawa [3], HPLM + 10% dialyzed FBS | 458 | –
P12-Ichikawa [3], RPMI 5 mM glucose + 10% FBS | 457 | –
P12-Ichikawa [3], RPMI 5 mM glucose + 10% dialyzed FBS | 450 | –

cell viability [%]
Settings | HPLM + 10% dialyzed FBS | RPMI 5 mM glucose + 10% FBS | RPMI 5 mM glucose + 10% dialyzed FBS
P12-Ichikawa [6], 0.000781 µM | – | – | 124
P12-Ichikawa [6], 0.00234 µM | – | – | 130
P12-Ichikawa [6], 0.00702 µM | – | – | 117
P12-Ichikawa [6], 0.0211 µM | – | – | 123
P12-Ichikawa [6], 0.0632 µM | – | – | 128
P12-Ichikawa [6], 0.19 µM | – | – | 119
P12-Ichikawa [6], 0.569 µM | – | – | 117
P12-Ichikawa [6], 1.71 µM | – | – | 116
P12-Ichikawa [6], 5.12 µM | – | – | 114
P12-Ichikawa [6], 15.4 µM | – | – | 101
P12-Ichikawa [6], 46.1 µM | – | – | 26.6
SEM cells [1], 0.000781 µM | 116 | 127 | 121
SEM cells [1], 0.00234 µM | 111 | 123 | 110
SEM cells [1], 0.00702 µM | 110 | 109 | 99.1
SEM cells [1], 0.0211 µM | 117 | 126 | 108
SEM cells [1], 0.0632 µM | 121 | 124 | 110
SEM cells [1], 0.19 µM | 115 | 119 | 120
SEM cells [1], 0.569 µM | 24.8 | 32.1 | 31.8
SEM cells [1], 1.71 µM | 133 | 124 | 119
SEM cells [1], 5.12 µM | 119 | 121 | 126
SEM cells [1], 15.4 µM | 120 | 120 | 118
SEM cells [1], 46.1 µM | 55.3 | 58.5 | 32.3
